Data published in paper PMC10781691, “Vertical pathway inhibition of receptor tyrosine kinases and BAD with synergistic efficacy in triple negative breast cancer” (NPJ Precision Oncology, 2024).

Legend:
[1] = biological target: T1, Recombinant human BAD (Homo sapiens, UniProt Q92934); assay: SPR (BIAcore) with BAD immobilized on sensor chip; assay type: binding; details: analyte 1.25–160 μM
T1 construct: purchased Novoprotein, Suzhou, China
Experimental: To compare the binding affinity of NCK and NPB towards BAD, we performed surface plasmon resonance (SPR) measurement by immobilizing BAD protein on a sensor chip with NCK or NPB as analyte. Representative reference-subtracted overlaid sensorgrams and the kinetic parameters are specified in Fig. 2d and Supplementary Fig. 6A. […] Additionally, the pharmacological inhibition of BAD phosphorylation by NCK or NPB in TNBC cells was evaluated. […] Furthermore, the comparative potencies of NPB and NCK were evaluated in eight TNBC cell lines using total cell number assay in 2D culture and cell viability in 3D culture (Supplementary Fig. 6C, D).

[2] = test system: MDA-MB-231 cells; assay: AlamarBlue cell viability, 3D Matrigel culture; assay type: cell-based, human
[3] = test system: BT549 cells; assay: AlamarBlue assay IC50 (Supplementary Fig. 5A); assay type: cell-based; details: Homo sapiens, BT-549
Source text: (§1) Ionization potential (I ) 7.21 eV
(§2) Electron affinity (A) 4.79 eV
(§3) Chemical potential (μ) 6.00 eV […]
(§4) using AlamarBlue assay. Data represent means ± SD. (B) Cartoon representation of the compounds NPB (red) and NCK (black) (depicted in ball & stick model) docked to the BAD protein, occupying the same groove with the BAD Serine 99 residue (yellow) nearby. (C) 2D structure representation of compound NPB interacting with BAD protein residues. (D) Cartoon representation of docked compound and molecular electrostatic potential surfaces of NCK. The color code of the compound lies in the range of -0.121e0 to +0.121e0. Red and blue color in the MEP structure point to more electron rich and electron poor regions respectively. (E) The […]

[4] = test system: MDA-MB-231 cells; assay: AlamarBlue assay IC50 (Supplementary Fig. 5A); assay type: cell-based; details: Homo sapiens; MDA-MB-231, AlamarBlue assay
Source text: as §1, §2, §3, §4

[5] = test system: BT549 cells; assay: Cell cycle analysis by PI flow cytometry; assay type: cell-based, human; details: BT549, 5 μM
[6] = test system: MDA-MB-231 xenografts; assay: Orthotopic xenograft, single drug study; assay type: in vivo, BALB/c-nude mice
Experimental: Next, the in vivo efficacy of NCK was examined in mice injected orthotopically with MDA-MB-231 cells to form xenografts. When the xenograft volume reached 100 mm^3, mice were randomly grouped and injected i.p. with vehicle, NCK (5 mg/kg q.d.) or NCK (20 mg/kg q.d.) for 21 days.

[7] = test system: MDA-MB-231 xenografts; assay: Orthotopic xenograft, combination study; assay type: in vivo, BALB/c-nude mice; details: for cells of human origin in lung sections (IHC staining of human HPRT): MDA-MB-231-engrafted mice; for % Regression: Complete Response (100%) / % Regression: Partial Response (>50%) / % Regression: Disease Progression: MDA-MB-231 xenograft; for % Regression: Disease Progression: day 21 (xenograft volume >100 mm^3); for lung metastasis incidence (mice with detectable lung hHPRT mRNA, qPCR): n = 6, vehicle 3 out of 6
Experimental: In vivo bioluminescent imaging was performed to determine the incidence and metastatic burden of luciferase-labeled 4T1 cells. Mice were injected i.p. with 10 mg/ml of D-luciferin (Gold Biotechnology, MO, USA) and imaged using a PerkinElmer IVIS Spectrum system. PDX were generated as previously described by transplanting fresh fragments orthotopically into 8-week-old female nonobese diabetic (NOD)/severe combined immunodeficient (SCID) mice (Beijing Vital River Laboratory Animal Technology Co., Beijing, China) (P1, passage 1)[40]. The P1 xenografts were then fragmented, digested into single-cell suspension and implanted into mammary fat pad (100 μL PBS containing growth factor reduced 50% Matrigel) of NOD/SCID mice. Once orthotopic xenografts reached an approximate size of 100 mm^3, the mice were randomly divided into three groups (n = 8) for single drug studies and six groups (n = 6) for combination studies and Kaplan-Meier (KM) analyses. […] Animal body weight and xenograft size were measured daily using an electronic balance and a digital caliper, respectively. Xenograft volume (mm^3) was calculated by using the formula: 0.52 × length × [width]^2. Complete response (CR) was achieved if the average xenograft volume for the treatment group was unable to be determined for two or more consecutive measurements. Partial response (PR) was achieved if the average xenograft volume reduced to <50 mm^3 for two or more consecutive measurements. After 3-week drug treatment, all mice were sacrificed by CO2 inhalation. Tumor and vital organs were weighed and isolated for further analysis. IHC analysis of xenograft histology sections and quantitative polymerase chain reaction (qPCR) were performed as previously described.
Data represent means ± SD. *P < 0.05, **P < 0.01, and ***P < 0.001.
Data represent means ± SD (n=6). *P < 0.05, **P
< 0.01, and ***P < 0.001.
Abbreviations: ALT/GOT, alanine
aminotransferase/ glutamic oxaloacetic transaminase; AST/GPT, aspartate aminotransferase/
glutamic pyruvic transaminase; CREA, creatinine; UREA, urea; and ALB, albumin. Data
represent means ± SD. *P < 0.05, **P < 0.01, and ***P < 0.001.

[8] = test system: MDA-MB-231 xenografts; assay: Orthotopic xenograft, combination study; assay type: in vivo; details: Balb/c-nude mice, day 22; NCK 20 mg/kg, OSI 50 mg/kg, CRI 50 mg/kg
[9] = test system: MDA-MB-231 cells; assay: CASPASE 3/7 DEVD assay; details: MDA-MB-231, 5 μM NCK
[10] = test system: BT549 cells; assay: Annexin V-PI apoptosis flow cytometry; details: BT549, 5 μM
Source text: Representative flow cytometry plots of Annexin-V and propidium iodide (PI) stained apoptotic
or NPB using flow cytometry analysis. Annexin V-FITC staining is indicated on the x axis, and PI staining is indicated on the y axis. The lower left quadrants represent live cells, the lower right quadrants represent early apoptotic cells, the upper left quadrants represent necrotic cells, and the upper right quadrants display late apoptotic cells. Acquisition of Annexin V and PI data are presented as a percentage (%) in each quadrant. Early apoptotic cells are referred to as Annexin- V positive and late apoptotic cells are referred to as Annexin-V and PI double positive.

[11] = test system: VEGFR2; details: read-out: potency on VEGFR2; cited from earlier work
[12] = test system: c-Kit; details: read-out: potency on Kit; cited from earlier work
[13] = test system: c-Raf; design: method as in SelleckChem; details: ref SelleckChem; cited from earlier work
[14] = Phase I, cited from earlier work
[15] = NCK 5 and 20 mg/kg q.d. i.p. 21 days
[16] = Balb/c-nude mice, day 22, NCK 20 mg/kg, OSI 50 mg/kg, CRI 50 mg/kg
[17] = day 21, NCK 20 mg/kg q.d., OSI-930 20 mg/kg q.d., Crizotinib 50 mg/kg b.i.w.
[18] = serum, NCK 20 mg/kg, OSI 50 mg/kg, CRI 50 mg/kg

T1 sequence (Q92934 whole entry): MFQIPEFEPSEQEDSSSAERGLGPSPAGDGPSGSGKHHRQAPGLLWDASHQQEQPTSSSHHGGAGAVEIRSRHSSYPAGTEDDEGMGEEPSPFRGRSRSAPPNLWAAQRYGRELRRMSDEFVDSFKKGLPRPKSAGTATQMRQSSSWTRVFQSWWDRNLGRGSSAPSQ

Compound: Oc1ccccc1C(c1cccnc1)N1CCN(c2cccc(Cl)c2Cl)CC1 (stereo not drawn) [NCK, 2-((4-(2,3-dichlorophenyl)piperazin-1-yl)(pyridin-3-yl)methyl) phenol]
- Kd ([1]; read-out: Affinity (KD)): 48.1 nM
- kon ([1]; read-out: Association (Ka)): 111000 M⁻¹ s⁻¹
- IC50 ([2]; Homo sapiens, MDA-MB-231, 3D Matrigel, AlamarBlue): 239 nM
- growth in 3D Matrigel ([2]; MDA-MB-231, 5 μM each): reduced cell growth in 3D Matrigel
- fold IC50 difference NCK vs NPB ([2]; MDA-MB-231, 3D Matrigel): ~ 6 fold
- IC50 [3]: 12100 ± 1360 nM
- IC50 [4]: 4940 ± 2800 nM
- decrease in S-phase [5]: 27.12%
- increase in G1-phase [5]: 30.43%
- xenograft volume and weight vs vehicle ([6]; NCK 5 mg/kg q.d. i.p. 21 days): significantly reduced xenograft volume
- xenograft volume and weight vs vehicle ([6]; NCK 20 mg/kg q.d. i.p. 21 days): significantly reduced xenograft volume
- MKI67 positivity in xenografts [6, 15]: decreased MKI67 positivity
- TUNEL scores in xenografts [6, 15]: increased TUNEL scores
- body weight vs vehicle [6, 15]: no significant change in body weight
- pBADSer99 in resected xenografts (IHC) vs vehicle [6, 15]: significantly reduced pBADSer99
- Relative Heart Weight [7, 16]: 0.74±0.16%
- Relative Kidney Weight [7, 16]: 1.60±0.14%
- Relative Lung Weight [7, 16]: 2.39±0.57%
- Relative Spleen Weight [7, 16]: 0.77±0.14%
- cells of human origin in lung sections (IHC staining of human HPRT) [7]: not in the lung sections
- % Regression: Complete Response (100%) ([7]; day 21): 33%
- % Regression: Partial Response (>50%) ([7]; day 21): 17%
- % Regression: Disease Progression [7]: 50%
- MKI67 positivity in xenograft vs vehicle ([7]; NCK 20 mg/kg q.d.): significantly reduced MKI67 positivity
- TUNEL scores in xenograft vs vehicle ([7]; NCK 20 mg/kg q.d.): increased TUNEL scores
- level of pBADSer99 in resected xenograft vs vehicle ([7]; NCK 20 mg/kg q.d.): reduced the level of pBADSer99
- complete regression of xenografts [7, 17]: 33.33%
- complete regression of xenografts (number of xenografts) [7, 17]: 2/6
- lung metastasis incidence (mice with detectable lung hHPRT mRNA, qPCR) [7]: 1/6
- ALB [7, 18]: 28.48 ± 3.45 g/L
- ALT/GOT [7, 18]: 75.66±23.55 U/L
- AST/GPT [7, 18]: 296.04±102.48 U/L
- CREA [7, 18]: 23.49 ± 3.02 µmol/L
- UREA [7, 18]: 14.01 ± 3.33 mmol/L
- Colon Length [8]: 9.55±0.84 cm
- Relative Liver Weight [8]: 5.70±0.38%
- CASPASE 3/7 activity vs vehicle [9]: increased CASPASE 3/7 activity
- induction of apoptosis (early and late) [10]: more potent effect than NPB in inducing apoptosis

Compound: O=C(Nc1ccc(OC(F)(F)F)cc1)c1sccc1NCc1ccnc2ccccc12 [OSI-930]
- cells of human origin in lung sections (IHC staining of human HPRT) [7]: not in the lung sections
- % Regression: Complete Response (100%) ([7]; day 21): 0%
- % Regression: Partial Response (>50%) ([7]; day 21): 33%
- % Regression: Disease Progression [7]: 67%
- lung metastasis incidence (mice with detectable lung hHPRT mRNA, qPCR) [7]: none of the mice had lung metastasis
- ALB [7, 18]: 30.61 ± 0.84 g/L
- ALT/GOT [7, 18]: 81.99±27.99 U/L
- AST/GPT [7, 18]: 298.22±75.62 U/L
- UREA [7, 18]: 12.36 ± 6.01 mmol/L
- Colon Length [8]: 9.34±0.67 cm
- IC50 [11]: 9 nM
- IC50 [12]: 80 nM
- IC50 [13]: 41 nM
- MTD, BID ([14]; ref NCT00513851): 500 mg
- MTD, QD ([14]; ref NCT00513851): 1600 mg
- MTD of OSI-930 BID with 150 mg erlotinib QD ([14]; ref NCT00603356): 200 mg
